{"source": "patent US20100179188A1", "about": "“NITROXIDE RADICAL AS TREATMENT FOR NEURODEGENERATION” (Office of Technology Transfer, NIH, priority 2007, published 2010)", "key": {"[1]": {"test_system": "IRP2−/− mice", "assay": "Hang-test of IRP2−/− mice on Tempo1-supplemented diet", "type": "in vivo", "excerpt": "Mice: IRP2−/− mice were generated, propagated by breeding and genotyped as described in LaVaute et al., Nature Genetics, 27, 209-214 (2001). Mice used in this study have a 129S4/SvJae X C57B1/6 mixed background (specific proportions of each strain are not known). In experiments with mice of same genotype but on different diets siblings were used to minimize phenotypic variation due to differences in genetic background. Mice of different genotypes and on different diets were age and sex matched. All protocols were approved by the National Institute of Child Health and Human Development Animal Care and Use Committee, and met US National Institutes of Health guidelines for the humane care of animals. […]\nHang-test: In the hang-test, mice were allowed to grip a wire mesh that was then inverted. The length of time that a mouse could hang on to an inverted wire mesh before falling (up to a maximum of 60 seconds) was measured and recorded.\nA stable nitroxide radical, Tempo1, was administered as a dietary supplement to knockout mice (IRP2−/−), and neurodegeneration was tested using the “hang test,” by which mice were allowed to grasp a wire mesh screen in an inverted position and the length of time that the mice could remain grasping the screen was measured (up to a maximum of 60 seconds). The hang test quantitatively assesses the progression of neurodegeneration in mice. […]"}, "[2]": {"test_system": "ferritin", "assay": "Western blot of ferritin in cerebellar lysates", "type": "in vivo", "conditions": "cerebellar lysates of IRP2−/− mice, Tempo1 diet vs control diet", "description": "(§1) Diet: The mice were weaned 3-4 weeks after their birth. Immediately after weaning, mice were maintained on either a Tempo1-supplemented or control diet. In the Tempo1-supplemented diet, powdered Tempo1 was uniformly mixed with bacon-flavored mouse chow by a “cold press” technique (Bio-Serv, Frenchtown, N.J., USA) at a concentration of 10 mg/g of food. Bacon-flavored chow without Tempo1 was used as the control diet.\nTissue and lysate preparation: Animals were euthanized and tissues were frozen in liquid nitrogen immediately after harvesting, and stored at −80° C. under argon. Experiments were performed on tissues that were pulverized in liquid N2-cooled mortars in an anaerobic chamber, and then lysed in lysis buffer that was deaerated by cyclic freezethaw and air-removal with argon. Nuclei and debris were removed by centrifugation. Preparations of lysates for assays of IRP1 activity, western blotting, carbonyl assay and protein analysis were performed anaerobically. […]\nCerebellar lysates from wild-type and IRP2−/− mice that were maintained on a control diet or on a Tempo1-supplemented diet were analyzed for ferritin and actin expression. […] Quantification was performed with the NIH Image program. Error bars represent the standard deviation calculated from the results of three different sets of animals. […]"}, "[3]": {"test_system": "ferritin", "assay": "Immunohistochemistry of ferritin in hippocampus and cortex", "type": "in vivo", "conditions": "hippocampus and cortex of IRP2−/− mice", "description": "as §1\nImmunohistochemistry: Paraffin-embedded tissue sections were boiled in a micro oven for 15 min for antigen retrieval in 10 mM citrate buffer pH 6.4 after dewaxing and rehydrating. The sections were blocked in blocking buffer (Tris-buffered saline pH 7.4, 5% nomial goat serum, 0.1% Tween-20) for 30 min, then were incubated with polyclonal rabbit anti-ferritin antibody for 2 h at room temperature, the protein-antibody complex was labeled by CY3-donkey anti-rabbit antibody (Jackson ImmunoResearch Laboratories, Inc., West Grove, Pa.), nuclei were labeled by DAPI as counterstaining. The slides were observed and the pictures were recorded with Nikon Eclipse E600 fluorescence microscope.\nImmunohistochemical studies were performed to analyze ferritin expression in the hippocampus and cortexregions of the mouse brains. […] The overexpression of ferritin decreased with Tempo1 treatment."}, "[4]": {"test_system": "ferric iron accumulation", "assay": "Perls' DAB stain for ferric iron in cerebellar folia and striatum", "type": "in vivo, mice", "conditions": "cerebellar folia and striatum of IRP2−/− animals on Tempo1 diet", "description": "as §1\nPerl's DAB iron staining: After dewaxing and rehydrating, paraffin-embeded tissue sections were stained in prewarmed staining solution (5% potassium ferrocyanide 15.0 ml, 5% hydrochloric acid 15.0 ml, 15 sec in micro oven) for 5 min. The sections were rinsed with distilled water and Tris-buffered saline pH7.4, then were stained with DAB staining solution (20 mg DAB, 50 μl 30% H2O2, 20 ml Tris-buffered saline pH 7.4) for 30 min at room temperature. After rinsing with distilled water, the sections were mounted with Crystal Mount mounting solution (Sigma) and were observed and taken pictures with Nikon Eclipse E600 fluorescence microscope.\nCerebellar folia and striatum of wild type and IRP2−/− mice that were maintained on a control diet or on a Tempo1-supplemented diet were analyzed for ferric iron accumulation using Perls' DAB stain. […]"}}}
{"smiles": "CC1(C)CC(O)CC(C)(C)N1[O]", "note": "[Tempo1]", "values": [{"measurement": "hang times", "setting": "[1]; IRP2−/− mice on Tempo1 supplemented diet (10 mg/g of food) vs untreated knockout mice, max 60 seconds", "result": "substantially increased"}, {"measurement": "protection from progressive loss of neuromuscular capability", "setting": "[1]; IRP2−/− mice on Tempo1 supplemented diet, hang test, FIG. 1c", "result": "significantly (p value=0.009) protected"}, {"measurement": "ferritin levels", "setting": "[2]", "result": "reduced"}, {"measurement": "overexpression of ferritin", "setting": "[3]", "result": "decreased"}, {"measurement": "ferric iron staining", "setting": "[4]", "result": "decreased"}]}
